ChEMBL document CHEMBL1156794, “Synthesis and antimicrobial evaluation of amphiphilic neamine derivatives” (J Med Chem, 2010)
Values after ≈ are worked out from the molar mass of the structure shown.

What was measured:
Staphylococcus aureus [1] = test: Antibacterial activity against MsrA pump expressing Staphylococcus aureus after 24 hrs by geometric microdilution method; assay type: functional
Staphylococcus aureus [2] = test: Antibacterial activity against aminoglycoside-6'-N-acetyltransferase/2''-O-phosphoryltransferase expressing Staphylococcus aureus after 24 hrs by geometric microdilution method; assay type: functional
Staphylococcus aureus [3] = test: Antibacterial activity against aminoglycoside-3'-O-phosphoryltransferase expressing Staphylococcus aureus after 24 hrs by geometric microdilution method; assay type: functional
Staphylococcus aureus [4] = test: Antibacterial activity against aminoglycoside-4'-O-phosphoryltransferase expressing Staphylococcus aureus after 24 hrs by geometric microdilution method; assay type: functional
Staphylococcus aureus [5] = test: Antibacterial activity against methicillin-resistant Staphylococcus aureus ATCC 33592 clinical isolate after 24 hrs by geometric microdilution method; assay type: functional; details: ATCC 33592, 24 h
Staphylococcus aureus [6] = test: Antibacterial activity against Staphylococcus aureus ATCC 25923 after 24 hrs by geometric microdilution method; assay type: functional; details: ATCC 25923, 24 h
Staphylococcus aureus [7] = test: Antibacterial activity against NorA pump expressing Staphylococcus aureus after 24 hrs by geometric microdilution method; assay type: functional
Acinetobacter lwoffii [8] = test: Antibacterial activity against […] expressing Acinetobacter lwoffii AI.88-483 after 24 hrs by geometric microdilution method; assay type: functional; details: AI.88-483, 24 h
Pseudomonas aeruginosa [9] = test: Antibacterial activity against Pseudomonas aeruginosa ATCC 27853 after 24 hrs by geometric microdilution method; assay type: functional; details: ATCC 27853, 24 h
Pseudomonas aeruginosa [10] = test: Antibacterial activity against AAC6'-2a expressing Pseudomonas aeruginosa F03 after 24 hrs by geometric microdilution method; assay type: functional; details: F03, 24 h
Pseudomonas aeruginosa [11] = test: Antibacterial activity against MexXY expressing Pseudomonas aeruginosa PT629 after 24 hrs by geometric microdilution method; assay type: functional; details: PT629, 24 h
Klebsiella pneumoniae = test: Antibacterial activity against Klebsiella pneumoniae ATCC 700603 after 24 hrs by geometric microdilution method; assay type: functional; details: ATCC 700603, 24 h
Escherichia coli [12] = test: Antibacterial activity against AAC6'-2b expressing Escherichia coli PAZ505H8101 after 24 hrs by geometric microdilution method; assay type: functional; details: PAZ505H8101, 24 h
Escherichia coli [13] = test: Antibacterial activity against ANT2'-2a expressing Escherichia coli L58058.1 after 24 hrs by geometric microdilution method; assay type: functional; details: L58058.1, 24 h
Pseudomonas aeruginosa [14] = test: Antibacterial activity against Pseudomonas aeruginosa PAO1 after 24 hrs by geometric microdilution method; assay type: functional; details: PAO1, 24 h
Pseudomonas aeruginosa [15] = test: Antibacterial activity against MexCD expressing Pseudomonas aeruginosa PA01 after 24 hrs by geometric microdilution method; assay type: functional; details: PA01, 24 h
Pseudomonas aeruginosa [16] = test: Antibacterial activity against MexEF expressing Pseudomonas aeruginosa PA03 after 24 hrs by geometric microdilution method; assay type: functional; details: PA03, 24 h
Pseudomonas aeruginosa [17] = test: Antibacterial activity against MexAB expressing Pseudomonas aeruginosa PA21 after 24 hrs by geometric microdilution method; assay type: functional; details: PA21, 24 h
Pseudomonas aeruginosa [18] = test: Antibacterial activity against MexXY expressing Pseudomonas aeruginosa PA22 after 24 hrs by geometric microdilution method; assay type: functional; details: PA22, 24 h
Pseudomonas aeruginosa [19] = test: Antibacterial activity against TriABC expressing MexAB, MexCD, MexEF, MexXY deleted Pseudomonas aeruginosa PA405 after 24 hrs by geometric microdilution method; assay type: functional; details: PA405, 24 h
Pseudomonas aeruginosa [20] = test: Antibacterial activity against MexAB, MexCD, MexEF, MexXY, TriABC deleted Pseudomonas aeruginosa PA406 after 24 hrs by geometric microdilution method; assay type: functional; details: PA406, 24 h
Staphylococcus aureus [21] = test: Antibacterial activity against vancomycin-resistant Staphylococcus aureus VRS-2 after 24 hrs by geometric microdilution method; assay type: functional; details: VRS-2, 24 h
Acinetobacter lwoffii [22] = test: microbe, parasite or virus in culture; details: ATCC 17925, 24 h
Description: Antibacterial activity against Acinetobacter lwoffii ATCC 17925 after 24 hrs by geometric microdilution method

Escherichia coli [23] = test: microbe, parasite or virus in culture; details: ATCC 25922, 24 h
Description: Antibacterial activity against Escherichia coli ATCC 25922 after 24 hrs by geometric microdilution method

| Structure (SMILES) | MIC (Staphylococcus aureus [1]) | MIC (Staphylococcus aureus [2]) | MIC (Staphylococcus aureus [3]) | MIC (Staphylococcus aureus [4]) | MIC (Staphylococcus aureus [5]) | MIC (Staphylococcus aureus [6]) | MIC (Staphylococcus aureus [7]) | MIC (Acinetobacter lwoffii [8]) | MIC (Pseudomonas aeruginosa [9]) | MIC (Pseudomonas aeruginosa [10]) | MIC (Pseudomonas aeruginosa [11]) | MIC (Klebsiella pneumoniae) | MIC (Escherichia coli [12]) | MIC (Escherichia coli [13]) | MIC (Pseudomonas aeruginosa [14]) | MIC (Pseudomonas aeruginosa [15]) | MIC (Pseudomonas aeruginosa [16]) | MIC (Pseudomonas aeruginosa [17]) | MIC (Pseudomonas aeruginosa [18]) | MIC (Pseudomonas aeruginosa [19]) | other results |
| --- | --- | --- | --- | --- | --- | --- | --- | --- | --- | --- | --- | --- | --- | --- | --- | --- | --- | --- | --- | --- | --- |
| NC[C@H]1O[C@H](O[C@H]2[C@H](O)[C@@H](OCc3ccc4ccccc4c3)[C@H](N)C[C@@H]2N)[C@H](N)[C@@H](O)[C@@H]1O | > 128 mg/L | > 128 mg/L | > 128 mg/L | > 128 mg/L | > 128 mg/L | > 128 mg/L | > 128 mg/L |  |  |  |  |  |  |  |  |  |  |  |  |  |  |
| NC[C@H]1O[C@H](O[C@H]2[C@H](O)[C@@H](OCc3ccccn3)[C@H](N)C[C@@H]2N)[C@H](N)[C@@H](OCc2ccccn2)[C@@H]1O | > 128 mg/L | > 128 mg/L | > 128 mg/L | > 128 mg/L |  | > 128 mg/L | > 128 mg/L |  |  |  |  |  |  |  |  |  |  |  |  |  |  |
| NC[C@H]1O[C@H](O[C@H]2[C@H](OCc3ccc4ccccc4c3)[C@@H](OCc3ccc4ccccc4c3)[C@H](N)C[C@@H]2N)[C@H](N)[C@@H](OCc2ccc3ccccc3c2)[C@@H]1OCc1ccc2ccccc2c1 |  |  |  |  |  |  |  | > 128 mg/L | 64 mg/L (≈ 72.5 µM) | 64 mg/L (≈ 72.5 µM) | 64 mg/L (≈ 72.5 µM) | 128 mg/L (≈ 145 µM) | 64 mg/L (≈ 72.5 µM) | 64 mg/L (≈ 72.5 µM) | 64 mg/L (≈ 72.5 µM) | 64 mg/L (≈ 72.5 µM) | 64 mg/L (≈ 72.5 µM) | 64 mg/L (≈ 72.5 µM) | 64 mg/L (≈ 72.5 µM) | 64 mg/L (≈ 72.5 µM) | MIC (Pseudomonas aeruginosa [20]): 64 mg/L (≈ 72.5 µM) |
| NC[C@H]1O[C@H](O[C@H]2[C@H](OCc3ccc4ccccc4c3)[C@@H](O)[C@H](N)C[C@@H]2N)[C@H](N)[C@@H](O)[C@@H]1OCc1ccc2ccccc2c1 | 128 mg/L (≈ 212 µM) | 128 mg/L (≈ 212 µM) | 32 mg/L (≈ 53.1 µM) | 128 mg/L (≈ 212 µM) | 64 mg/L (≈ 106 µM) | 64 mg/L (≈ 106 µM) | 128 mg/L (≈ 212 µM) | > 128 mg/L | 128 mg/L (≈ 212 µM) | > 128 mg/L | > 128 mg/L | > 128 mg/L | 128 mg/L (≈ 212 µM) | 128 mg/L (≈ 212 µM) | > 128 mg/L | > 128 mg/L | > 128 mg/L | > 128 mg/L | > 128 mg/L | 16 mg/L (≈ 26.5 µM) | MIC (Staphylococcus aureus [21]): 64 mg/L (≈ 106 µM); MIC (Pseudomonas aeruginosa [20]): 16 mg/L (≈ 26.5 µM); MIC (Acinetobacter lwoffii [22]): 32 mg/L (≈ 53.1 µM); MIC (Escherichia coli [23]): 128 mg/L (≈ 212 µM) |
| NC[C@H]1O[C@H](O[C@H]2[C@H](O)[C@@H](O)[C@H](N)C[C@@H]2N)[C@H](N)[C@@H](O)[C@@H]1O [NEAMINE] | 16 mg/L (≈ 49.6 µM) | 16 mg/L (≈ 49.6 µM) | > 128 mg/L | > 128 mg/L | > 128 mg/L | 32 mg/L (≈ 99.3 µM) | 32 mg/L (≈ 99.3 µM) | > 128 mg/L | > 128 mg/L | > 128 mg/L | > 128 mg/L | 32 mg/L (≈ 99.3 µM) | > 128 mg/L | 32 mg/L (≈ 99.3 µM) | > 128 mg/L | > 128 mg/L | > 128 mg/L | > 128 mg/L | > 128 mg/L | 128 mg/L (≈ 397 µM) | MIC (Staphylococcus aureus [21]): > 128 mg/L; MIC (Pseudomonas aeruginosa [20]): 128 mg/L (≈ 397 µM); MIC (Acinetobacter lwoffii [22]): 2 mg/L (≈ 6.2 µM); MIC (Escherichia coli [23]): 32 mg/L (≈ 99.3 µM) |
| NC[C@H]1O[C@H](O[C@H]2[C@H](O)[C@@H](O)[C@H](N)C[C@@H]2N)[C@H](N)[C@@H](OCc2ccc3ccccc3c2)[C@@H]1OCc1ccc2ccccc2c1 | 8 mg/L (≈ 13.3 µM) | 8 mg/L (≈ 13.3 µM) | 4 mg/L (≈ 6.64 µM) | 8 mg/L (≈ 13.3 µM) | 8 mg/L (≈ 13.3 µM) | 4 mg/L (≈ 6.64 µM) | 8 mg/L (≈ 13.3 µM) | > 128 mg/L | 32 mg/L (≈ 53.1 µM) | > 128 mg/L | > 128 mg/L | > 128 mg/L | 16 mg/L (≈ 26.5 µM) | 16 mg/L (≈ 26.5 µM) | 64 mg/L (≈ 106 µM) | 16 mg/L (≈ 26.5 µM) | 8 mg/L (≈ 13.3 µM) | 64 mg/L (≈ 106 µM) | > 128 mg/L | 8 mg/L (≈ 13.3 µM) | MIC (Staphylococcus aureus [21]): 4 mg/L (≈ 6.64 µM); MIC (Pseudomonas aeruginosa [20]): 8 mg/L (≈ 13.3 µM); MIC (Acinetobacter lwoffii [22]): 8 mg/L (≈ 13.3 µM); MIC (Escherichia coli [23]): 32 mg/L (≈ 53.1 µM) |
| NC[C@H]1O[C@H](O[C@H]2[C@H](O)[C@@H](OCc3ccccn3)[C@H](N)C[C@@H]2N)[C@H](N)[C@@H](OCc2ccccn2)[C@@H]1OCc1ccccn1 | > 128 mg/L | > 128 mg/L | > 128 mg/L | > 128 mg/L |  | > 128 mg/L | > 128 mg/L |  |  |  |  |  |  |  |  |  |  |  |  |  |  |
